Reference: patent US5977298A, “Calcitonin derivatives” (Kvowa Hakko Kogyo Co., Ltd., priority 1995, dated 1999)
Bridges are numbered along the chain shown (N, C = ends). Where no end group is shown, it is not given here. [ ]: non-standard residue; d: D form. Gla = N[C@@H](CC(C(=O)O)C(=O)O)C(=O)O; Hyp = O=C(O)[C@@H]1C[C@@H](O)CN1; βAla = NCCC(=O)O

Key:
[1] = test system: Osteoclast-like multinucleated cells (osteoclasts); test: Calcitonin-like biological activity: bone resorption pit formation by osteoclasts on ivory pieces; assay type: cell-based, mouse; conditions: 48 hours
Method: 1-1 Preparation of Osteoclasts
Osteoclast-like multinucleated cells which were derived by coculturing mouse osteoblasts and bone marrow cells on collagen gel according to the method described in Akatsu T. et al., J. Bone Miner. Res., 7, 1297-1306 (1992) were used as osteoclasts. That is, osteoblasts derived from mouse vault of skull (5×10^5 cells) were put in a 100 mm dish (IWAKI) collagen-coated with Cellmatrix Type I-A (Nitta Gelatin Co., Ltd.) and cultured for one day in a CO2 incubator (37° C., 5% CO2) [medium: αMEM+10% FCS (both by GIBCO Co., Ltd.)]. After the medium was removed, mouse bone marrow cells (6×10^6 cells) were put on the osteoblasts and 10^-8 M calcitriol (Wako Pure Chemical Industries, Ltd.) and 10^-7 M dexamethasone (Sigma Chemical Co.) were added thereto. TRAP-positive multinucleate cells (osteoclast-like cells) which were obtained 7 days after the inoculation of osteoblasts were used as osteoclasts.
1-2 Culturing of Osteoclasts on Ivory Pieces
After removal of the medium from the dish, and rinsing with PBS(-), a mixture of collagenase and dispase (collagenase: Wako Pure Chemical Industries, Ltd., dispase: Godo Shusei Co., Ltd.) was added thereto to suspend the cells. The cell suspension was put into a tube and centrifuged at 800 rpm for 5 minutes. After removal of the supernatant by suction, the cells were suspended again in αMEM and the suspension was put on ivory pieces (diameter: 4 mm, thickness: 20 μm) in 100 μl portions. The ivory pieces were left to stand in a CO2 incubator for 2 hours to attach the osteoclasts thereto, and then taken out and gently transferred to a 48-well plate (IWAKI) to which a medium containing a test compound had been added in advance to determine the bone resorption activity 48 hours later according to the method described below. The medium containing the test compound was prepared by adding the test compound dissolved in HEPES buffer to the medium described in 1-1 to give the final concentrations shown in Tables 2 and 3.
1-3 Determination of Bone Resorption Activity by Staining of Ivory Pieces and Measurement of Bone Resorption Pit Area
The ivory pieces taken out of the medium were put into a tube containing 0.1 N aqueous ammonia and subjected to sonication treatment with a sonicator for 20-30 seconds to remove the osteoclasts. After being washed with distilled water to remove ammonia, the ivory pieces were dipped in a hematoxylin-eosin staining solution to stain resorption pits. The bone resorption pit formation rate was calculated based on microphotographs of stained ivory pieces according to the following equation by the use of an image analyzer. [formula]
The bone resorption inhibitory activity of test compounds were calculated according to the following equation. [formula]
A; Bone resorption pit formation rate obtained using no test compound
B; Bone resorption pit formation rate obtained using a test compound

male SD strain rats = test: Serum calcium content after intravenous administration to rats; assay type: in vivo, rat; conditions: 60 minutes after administration; for Serum calcium Content: 0.5 ml i.v. tail vein, value ± standard error
Method: Four-weeks-old male SD strain rats (Clea Japan, Inc.) were fasted for 24 hours before the test and were offered in groups each consisting of 8 rats. Each rat of the control group was given 0.5 ml of physiological saline (Otsuka Pharmaceutical Co., Ltd.) containing 1% BSA (Sigma Chemical Co.) by intravenous administration through the tail vein. In the same manner, each rat of Compound 9-administered groups was given 0.5 ml of a solution of Compound 9 in physiological saline containing 1% BSA. Blood was collected from the right femoral artery of a rat 60 minutes after the administration and was centrifuged at 4° C. at 3000 rpm for 15 minutes to obtain a blood serum, and the serum calcium content was determined with calcium C-test WAKO (Wako Pure Chemical Industries, Ltd.). The results are expressed in terms of value ± standard error, and the difference was judged to be statistically significant at P <0.05 according to the Williams-Wilcoxon test.

| Substance | Bone resorption inhibitory activity (% inhibition) ([1]; compound concentration 10^-6 M) | further results |
| --- | --- | --- |
| Compound 2: SEQ ID NO:2; cyclic peptide Compound 16 condensed to the N-terminus of the Compound 18 peptide (GNWHGTAPDVLGKLSQELHKLQTYPRTNTGSGTP-NH2; lactam N-9) | – | Bone resorption inhibitory activity (% inhibition) ([1]; compound concentration 10^-8 M): 36% |
| Compound 4: SEQ ID NO:4; cyclic peptide Compound 16 condensed to the N-terminus of the Compound 20 peptide (GNWHGTAPDMLGTYTQDFNKFHTFPQTAIGVGAP-NH2; lactam (positions not given here); not fully specified (bridges); printed as ⌐GNWHGTAPDMLGTYTQDFNKFHTFPQTAIGVGAP—NH$_2$; also: cyclic peptide Compound 16 condensed at N-terminus) | 29% | – |
| Compound 9: SEQ ID NO:9; cyclic peptide Compound 16 condensed to the N-terminus of the Compound 25 peptide (GNWHGTAPDGLGSLTEVLAKLAEYPRTNTGSGTP-NH2; lactam (positions not given here); not fully specified (bridges); printed as ⌐GNWHGTAPDGLGSLTEVLAKLAEYPRTNTGSGTP┐— NH$_2$; also: cyclic peptide Compound 16 condensed at N-terminus) | 53% | Serum calcium Content (male SD strain rats; compound concentration 1 μg/ml): 10.41 ± 0.13 mg/dL; Serum calcium Content (male SD strain rats; compound concentration 10 μg/ml): 10.20 ± 0.16 mg/dL; Serum calcium Content (male SD strain rats; compound concentration 100 μg/ml, P < 0.01 vs control): 7.54 ± 0.29 mg/dL; serum calcium content compared with that of the control group (male SD strain rats; concentration of 100 μg/l (so in the source), 0.5 ml i.v.): significantly lowered |
| Compound 5: SEQ ID NO:5; cyclic peptide Compound 16 condensed to the N-terminus of the Compound 21 peptide (GNWHGTAPDGLGSLTEVLAKLAAYPRTNTGSGTP-NH2; lactam (positions not given here); not fully specified (bridges); printed as ⌐GNWHGTAPDGLGSLTEVLAKLAAYPRTNTGSGTP—NH$_2$; also: cyclic peptide Compound 16 condensed at N-terminus) | 35% | – |
| Compound 13: SEQ ID NO:13; cyclic peptide Compound 16 condensed to the N-terminus of the Compound 29 peptide (GNWHGTAPDGLGSLTEVLAKLAEYP[dR]TNTGSGTP-NH2; lactam (positions not given here); not fully specified (bridges); printed as ⌐GNWHGTAPDGLGSLTEVLAKLAEYPrTNTGSGTP┐— NH$_2$; also: cyclic peptide Compound 16 condensed at N-terminus) | 35% | – |
| Compound 3: SEQ ID NO:3; cyclic peptide Compound 16 condensed to the N-terminus of the Compound 19 peptide (GNWHGTAPDVLAALAAALAALAALPRTNTGSGTP-NH2; lactam (positions not given here); not fully specified (bridges); printed as ⌐GNWHGTAPDVLAALAAALAALAALPRTNTGSGTP—NH$_2$) | 65% | – |
| Compound 10: SEQ ID NO:10; cyclic peptide Compound 16 condensed to the N-terminus of the Compound 26 peptide (GNWHGTAPDGLGSLT[Gla]VLAKLAEYPRTNTGSGTP-NH2; lactam (positions not given here); not fully specified (bridges); also: cyclic peptide Compound 16 condensed at N-terminus) | 27% | – |
| Compound 8: SEQ ID NO:8; cyclic peptide Compound 16 condensed to the N-terminus of the Compound 24 peptide (GNWHGTAPDGLGSLTEVLAKLAAYPRTNT[βAla]SGTP-NH2; lactam (positions not given here); not fully specified (bridges); also: cyclic peptide Compound 16 condensed at N-terminus) | 39% | – |
| H-LGKLSQELHKLQTYPRTNTGSGTP-NH2 [Compound 17, reference compound] | – | Bone resorption inhibitory activity (% inhibition) ([1]; compound concentration 10^-7 M): 0% |
| Compound 1: SEQ ID NO:1; cyclic peptide Compound 15 condensed to the N-terminus of the Compound 17 peptide (GNWHGTAPDWLGKLSQELHKLQTYPRTNTGSGTP-NH2; lactam N-9) | – | Bone resorption inhibitory activity (% inhibition) ([1]; compound concentration 10^-7 M): 61% |
| Compound 6: SEQ ID NO:6; cyclic peptide Compound 16 condensed to the N-terminus of the Compound 22 peptide (GNWHGTAPDGLGSLTEVLAKLAAYPRSQTGAGTP-NH2; lactam (positions not given here); not fully specified (bridges); printed as ⌐GNWHGTAPDGLGSLTEVLAKLAAYPRSQTGAGTP—NH$_2$; also: cyclic peptide Compound 16 condensed at N-terminus) | 29% | – |
| H-Val-Leu-Gly-Lys-Leu-Ser-Gln-Glu-Leu-His-Lys-Leu-Gln-Thr-Tyr-Pro-Arg-Thr-Asn-Thr-Gly-Ser-Gly-Thr-Pro-NH2 (H-VLGKLSQELHKLQTYPRTNTGSGTP-NH2) [Compound 18, linear partial calcitonin peptide, comparison for Compound 2, reference compound] | – | Bone resorption inhibitory activity (% inhibition) ([1]; compound concentration 10^-8 M): 15% |
| Compound 7: SEQ ID NO:7; cyclic peptide Compound 16 condensed to the N-terminus of the Compound 23 peptide (GNWHGTAPDGLGSLTEVLAKLAAY[Hyp]RTNTGSGT[Hyp]-NH2; lactam (positions not given here); not fully specified (bridges); also: cyclic peptide Compound 16 condensed at N-terminus) | – | Bone resorption inhibitory activity (% inhibition) ([1]; compound concentration 10^-8 M): 50% |
| Compound 14: SEQ ID NO:14; cyclic peptide Compound 16 condensed to the N-terminus of the Compound 30 peptide (GNWHGTAPDGLGSLTEVLAKLAEYPKTNTGSGTP-NH2; lactam (positions not given here); not fully specified (bridges); printed as ⌐GNWHGTAPDGLGSLTEVLAKLAEYPKTNTGSGTP┐— NH$_2$; also: cyclic peptide Compound 16 condensed at N-terminus) | 40% | – |
| Compound 11: SEQ ID NO:11; cyclic peptide Compound 16 condensed to the N-terminus of the Compound 27 peptide (GNWHGTAPDGLGSLTEVLAKLA[Gla]YPRTNTGSGTP-NH2; lactam (positions not given here); not fully specified (bridges); also: cyclic peptide Compound 16 condensed at N-terminus) | – | Bone resorption inhibitory activity (% inhibition) ([1]; compound concentration 10^-7 M): 42% |
| H-Val-Leu-Ala-Ala-Leu-Ala-Ala-Ala-Leu-Ala-Ala-Leu-Ala-Ala-Leu-Pro-Arg-Thr-Asn-Thr-Gly-Ser-Gly-Thr-Pro-NH2 (H-VLAALAAALAALAALPRTNTGSGTP-NH2) [Compound 19, linear calcitonin-like peptide, comparison for Compound 3, reference compound] | 6% | – |
